Data published in patent US20080271210A1, “Oryza Sativa Lectin-Like Receptor Kinase 1 (Oslrk1), a Gene Involved in Plant Development” (Temasek Life Sciences Laboratory National University of …, priority 2004, published 2008).

Legend:
WT seeds and seedlings = assay: Germination and growth of WT seeds in galactose/mannose containing media; type: in vivo, Oryza sativa
Excerpt: (§1) The altered expression of the Oslrk1 by different sugars described above led us to study the response of the mutant to these monosaccharides and sucrose. The WT and the mutant seeds were germinated and grown in Gal, Man, Glu, Fm along with Suc at different concentrations (ranging from 0.1% to 1%) and Suc alone containing medium as a control. The following parameters were taken into account during observation: the shoot length, the number and the length of adventitious roots and the germination rate. […] Out of these three sugars tested, Man was selected as an example as its inhibitory effect was similar in seeds and seedlings of WT and mutant as shown in FIGS. 10A and B. The seed germination was severely affected by Man.
(§2) At 1.0% of the Gal, the shoot length decreased by half in the mutant, whereas only by 15% in the WT seedlings. […] Apart from this, the germination rate of the WT seeds dropped to 85% whereas in the mutant it dropped to 30%.
(§3) Germination of WT and mutant seeds in galactose/mannose containing media. WT and mutant seeds were germinated separately on MS medium containing 0.8% agar and 1% sucrose. In addition, D(+)galactose/D(+/−)mannose was added in different concentrations (0.1, 0.2, 0.5, and 1.0%) along with a control (MS with 1% of sucrose). At 14 days after germination, the observations for adventitious root number and length (cm), shoot length (cm) and germination rate (%) were recorded.

[1] = tested on: Oslrk1 mutant seeds and seedlings; assay: Germination and growth of Oslrk1 mutant seeds in galactose/mannose containing media; type: in vivo, Oryza sativa; settings: for behavior of the mutant compared with the WT upon treatment: sugar 0.1% to 1% along with Suc
Excerpt: as §1, §2, §3

Oslrk11 = assay: RT-PCR of Oslrks in treated 2 week-old seedlings; type: in vivo, Oryza sativa; settings: treated vs control
Procedure: (§4) RT-PCRs were carried out on RNA samples isolated from 2 week-old seedlings treated with various sugar (FIG. 13), hormone (FIG. 14), and abiotic stresses (FIG. 15) using primers designated to either 3′ or 5′ Untranslated Regions (UTRs) of the 15 Oslrks found in Table 2. For each Oslrk two lanes in the gel are found, the first lane is the control and the second one treatment samples.
(§5) Table 3 provides a summary of all the above referenced data on the Oslrks, showing the RT-PCR results of various treatments, including sugar, hormone and abiotic stress and northern blot results on various tissues of rice plant grown in normal conditions, and the ESTs, or cDNAs availability in the database. In the table, “I” represents induced expression and “R” represents repressed expression.

Oslrk4 = assay: RT-PCR of Oslrks in treated 2 week-old seedlings; type: in vivo, Oryza sativa; settings: treated vs control
Procedure: as §4, §5

Oslrk5 = assay: RT-PCR of Oslrks in treated 2 week-old seedlings; type: in vivo, Oryza sativa; settings: treated vs control
Procedure: as §4, §5

Oslrk8 = assay: RT-PCR of Oslrks in treated 2 week-old seedlings; type: in vivo, Oryza sativa; settings: treated vs control
Procedure: as §4, §5

Oslrk1 gene [2] = assay: Northern-blot of Oslrk1 transcript in WT seedlings treated with hormones and SA; type: in vivo, Oryza sativa; settings: for Oslrk1 gene expression repressed by: 3' UTR probe, vs untreated
Excerpt: Differential Regulation of Oslrk1 Gene Expression by Hormones. Receptor-like kinases were postulated to be involved in signal transduction events as they perceive a signal via a ligand-binding extracellular domain and transmit it through the serine/threonine kinase domain into the cytosol (Shiu and Bleecker, 2001). In order to know possible factors influencing the Oslrk1 gene regulation, we analyzed promoter of the Oslrk1 (1.5 kb) for the presence of cis-acting elements using the program PlantCARE (Lescot et al., 2002). Three TGAGC motifs observed in MeJA inducible genes were found in promoter of the Oslrk1 at the positions −186, −657 and −1190. Apart from these, three GA3 inducible motifs (P-box-CCTTxt) −101, −206 and −740 bp upstream of the Oslrk1 ORF were located. In addition, five salicylic acid inducible motifs (TCA-elementcAGAAa/ga) at the positions of −321, −601, −604, −855 and −1135 were detected. The presence of MeJA, GA and SA responsive cis-elements in the Oslrk1 promoter indicated possible regulatory roles of these factors. The promoter analysis led us to study the effect of different hormones and compounds on the Oslrk1 transcription. The WT seeds were germinated for […] then seedlings were transferred to the medium containing one of the following chemicals: […], MeJA, GA3 or ABA at concentration 100 uM and SA (5 mM) for 24 hours (Materials and Methods). The total RNA isolated from the untreated and treated seedlings were used in Northern-blot hybridization using 3′ UTR of the Oslrk1 gene as a probe. The treatment with GA3 and SA repressed the Oslrk1 gene expression (FIG. 8A) by 2.5 and 3.3 times respectively. […] In order to confirm the level of induction of the Oslrk1 gene by MeJA over time, in another series of experiments, a time course was performed after hormone treatment. Seven day old seedlings were sprayed with 100 uM of MeJA solution and they were harvested in 1, 2, 4, 6, 8, and 12 hours.
RNA Isolation and Northern-blot Analysis. RNA was isolated from different organs of rice plant at different developmental stages (roots of 10-14 days old seedlings and 2 months old plants, 10-14 days old seedlings, young and mature leaves, panicles at the flowering stage and calli) using a RNeasy Plant mini kit (Qiagen,). The RNA (10 ug) was fractionated on a 1.2% denaturating formaldehyde agarose gel and transferred onto a Hybond-N^+ membrane (Amersham). The bolts were hybridized with dogoxigenin (DIG)-labeled probes in DIG Easy Hyb solution (Roche) at 50° C. After hybridization, membranes were washed twice with 2×SSC and 0.1% SDS for 15 min, then twice with 0.5×SSC and 0.1% SDS for 15 min at 68° C. Detection was carried out according to manufacturer using DIG Wash and Block Buffer set and chemiluminescent substrate CDP Star™ (Roche). DIG-labelled probe corresponded to 3′UTR and lectin domain of Oslrk1 was used. For the control of RNA quantity, DIG-probe corresponding to rice Actin1 gene was synthesized using the following primers: […]
(§6) The RT-PCRs and Northern blots were repeated at least thrice and similar results were obtained. The quantification of the intensity of the hybridization signals was performed using Quantity ONE 4.5.0 software in Gel doc XR documentation system (Bio-Rad Laboratories, Inc., USA). The level of actual expression was calculated as a ratio of intensity of specific signal (Oslrk1 3′UTR probe) to the intensity of signal of positive control (rice Act1).
Treatment of WT Seedlings with Hormones and Sugars. Two week old WT seedlings were transferred to MS medium containing 100 μM of different hormones, such as Indole 3-Acetic Acid (IAA), Abscisic acid (ABA), Methyl Jasmonate (MeJA), or Gibbrellic Acid (GA3) and 5 mM of Salicylic Acid (SA), and were grown for 24 hours under normal day/light conditions. Total RNA was extracted from root of the seedlings and whole seedlings. […]

WT seedlings = assay: Growth of WT seedlings in MeJA or GA3 containing medium; type: in vivo, Oryza sativa
Procedure: (§7) In order to study the effect of phytohormones on the Oslrk1 mutant, seeds were grown in medium containing different concentrations of either MeJA ([…]) (FIG. 9A) or GA3 (0.5, 1, 5 and 10 μm) (data not shown) along with WT as a control The number and length of adventitious roots, number of lateral roots and shoot length were measured. […] In the WT seedlings the number of the lateral roots was increased at 5 uM and decreased by at 10 uM.
(§8) The adventitious root length of WT increased by 50% at 10 uM concentration of GA3, but it was not altered in the mutant (data not shown).
(§9) Plant Growth Conditions. Surface sterilized rice seeds were germinated and grown in cell culture containers (Phytatray II Sigma cell culture, USA) on 0.8% agar MS medium (Murashige and Skoog medium, Sigma., St. Louis Mo., USA) containing 1% of Suc for 2 weeks under 16/8 hours photoperiod. All chemicals used for the various treatments were purchased from Sigma.
(§10) Growth of WT and Mutant Seedlings in MeJA Containing Medium WT and mutant seeds were germinated and grown in MS medium (1% Suc) containing different concentrations of MeJA (1 μM, 5 μM, and 10 μM) for two weeks. No MeJA was added in the control. The number and length (cm) of adventitious roots as well as the number of lateral roots were measured.

Oslrk1 mutant seedlings = assay: Growth of Oslrk1 mutant seedlings in MeJA or GA3 containing medium; type: in vivo, Oryza sativa
Procedure: as §7, §8, §9, §10

Oslrk1 gene [3] = assay: Northern-blot of Oslrk1 transcript in WT seedlings treated with sugars; type: in vivo, Oryza sativa; settings: sugars 175 mM, 48 hours, Mannitol as osmotic control
Procedure: Lectins are known as carbohydrate-binding proteins that specifically recognize diverse sugar structures (Vijayan and Chandra, 1999). […] Five different sugars: glucose (Glu), sucrose (Suc), fructose (Fm), Gal and Man were used for this study along with Mannitol as an osmotic control (Methods). Northern-blot hybridizations were carried out on the total RNA isolated from treated seedlings.
RNA Isolation and Northern-blot Analysis. RNA was isolated from different organs of rice plant at different developmental stages (roots of 10-14 days old seedlings and 2 months old plants, 10-14 days old seedlings, young and mature leaves, panicles at the flowering stage and calli) using a RNeasy Plant mini kit (Qiagen,). […] For the control of RNA quantity, DIG-probe corresponding to rice Actin1 gene was synthesized using the following primers: […]
as §6, with “Act1). […]” for “Act1).”

adventitious roots = settings: rice, Moons et al., 1997; cited from earlier work
Oslrk10 = assay: RT-PCR of Oslrks in treated 2 week-old seedlings; type: in vivo, Oryza sativa; settings: Rt, treated vs control
Procedure: as §4, §5

Oslrk2 = assay: RT-PCR of Oslrks in treated 2 week-old seedlings; type: in vivo, Oryza sativa; settings: treated vs control
Procedure: as §4, §5

[4] = GA3 10 uM, two weeks in MS agar
[5] = seedlings sprayed with 100 uM, time course 1-12 hours

SMILES: O=C[C@@H](O)[C@@H](O)[C@H](O)[C@H](O)CO (racemic) [Man, mannose]
- effect on any parameters tested (shoot length, number and length of adventitious roots, germination rate) (WT seeds and seedlings; mannose 0.1%): No obvious effect
- seed germination rate (WT seeds and seedlings; mannose 0.2%): 35%
- seed germination (WT seeds and seedlings; mannose 0.5%): did not germinate
- effect on any parameters tested (shoot length, number and length of adventitious roots, germination rate) ([1]; Oslrk1 mutant, mannose 0.1%): No obvious effect
- seed germination rate ([1]; Oslrk1 mutant, mannose 0.2%): 35%
- seed germination ([1]; Oslrk1 mutant, mannose 0.5%): did not germinate
- behavior of the mutant compared with the WT upon treatment [1]: No significant differences
- Oslrk11 expression by RT-PCR, Rt (Oslrk11): I
- Oslrk4 expression by RT-PCR, Rt (Oslrk4): I
- Oslrk5 expression by RT-PCR, Rt (Oslrk5): I
- Oslrk5 expression by RT-PCR, Sh (Oslrk5): R
- Oslrk8 expression by RT-PCR, Rt (Oslrk8): I

SMILES: O=C(CO)[C@@H](O)[C@H](O)[C@H](O)CO [Fm, fructose]
- behavior of the mutant compared with the WT upon treatment [1]: No significant differences

SMILES: C=C1C[C@]23C[C@@]1(O)CC[C@H]2[C@@]12C=C[C@H](O)[C@@](C)(C(=O)O1)[C@H]2[C@@H]3C(=O)O [GA3, Gibbrellic Acid]
- Oslrk1 gene expression repressed by (Oslrk1 gene [2]; 100 uM, 24 hours, WT seedlings): 2.5 times
- adventitious root length increased by (WT seedlings; [4]): 50%
- adventitious root length (Oslrk1 mutant seedlings; [4]): not altered
- Oslrk11 expression by RT-PCR, Rt (Oslrk11): I
- Oslrk11 expression by RT-PCR, Sh (Oslrk11; Sh): R
- Oslrk4 expression by RT-PCR, Rt (Oslrk4): I
- Oslrk5 expression by RT-PCR, Rt (Oslrk5): I
- Oslrk8 expression by RT-PCR, Rt (Oslrk8): I

SMILES: O=C[C@H](O)[C@@H](O)[C@H](O)[C@H](O)CO [Glu, glucose]
- behavior of the mutant compared with the WT upon treatment [1]: No significant differences
- Oslrk4 expression by RT-PCR, Rt (Oslrk4): I
- Oslrk4 expression by RT-PCR, Sh (Oslrk4): R
- Oslrk8 expression by RT-PCR, Rt (Oslrk8): I
- Oslrk8 expression by RT-PCR, Sh (Oslrk8; Sh): R

SMILES: OC[C@@H](O)[C@@H](O)[C@H](O)[C@H](O)CO [Mannitol]
- Oslrk1 expression in response to sugars (Oslrk1 gene [3]): not altered

SMILES: CC/C=C\CC1C(=O)CCC1CC(=O)OC (stereo not drawn) [MeJA, Methyl Jasmonate]
- Oslrk1 transcript, intensity of the hybridization signal increased by (Oslrk1 gene [2]; 100 uM, 24 hours, WT seedlings, compared to the control): 3.2 times
- maximum induction of Oslrk1 expression relative to untreated sample (Oslrk1 gene [2]; [5]): approximately 3 times
- time of maximum Oslrk1 induction (Oslrk1 gene [2]; [5]): 8 h
- number of the lateral roots (WT seedlings; MeJA 5 uM): increased
- number of adventitious roots (WT seedlings; MeJA 10 uM): opposite to the effect observed at 5 uM
- number of the lateral roots (WT seedlings; MeJA 10 uM): decreased
- reduction in length of adventitious roots (WT seedlings; MeJA 10 uM): approximately 75%
- shoot length (WT seedlings; MeJA 1, 5, 10 uM, two weeks): decreased
- number of adventitious roots (WT seedlings; MeJA up to 5 uM): gradually increased
- number of adventitious roots (Oslrk1 mutant seedlings; MeJA 10 uM): opposite to the effect observed at 5 uM
- number of lateral roots (Oslrk1 mutant seedlings; MeJA 1, 5, 10 uM): no significant changes
- shoot length (Oslrk1 mutant seedlings; MeJA 1, 5, 10 uM, two weeks): decreased
- number of adventitious roots (Oslrk1 mutant seedlings; MeJA up to 5 uM): gradually increased
- length of adventitious roots (Oslrk1 mutant seedlings; MeJA up to 10 uM): not reduced significantly
- Oslrk4 expression by RT-PCR, Rt (Oslrk4): I
- Oslrk4 expression by RT-PCR, Sh (Oslrk4): R
- Oslrk5 expression by RT-PCR, Rt (Oslrk5): I
- Oslrk5 expression by RT-PCR, Sh (Oslrk5): R
- concentration at which development of adventitious roots was inhibited (adventitious roots): more than 3 μM

SMILES: O=C(O)c1ccccc1O [SA, Salicylic Acid]
- Oslrk1 gene expression repressed by (Oslrk1 gene [2]; 5 mM, 24 hours, WT seedlings): 3.3 times
- Oslrk10 expression by RT-PCR, Rt (Oslrk10): I
- Oslrk11 expression by RT-PCR, Rt (Oslrk11): I
- Oslrk4 expression by RT-PCR, Rt (Oslrk4): I
- Oslrk5 expression by RT-PCR, Rt (Oslrk5): I
- Oslrk8 expression by RT-PCR, Rt (Oslrk8): I

SMILES: OC[C@H]1O[C@@](CO)(O[C@H]2O[C@H](CO)[C@@H](O)[C@H](O)[C@H]2O)[C@@H](O)[C@@H]1O [Suc, sucrose]
- Oslrk11 expression by RT-PCR, Rt (Oslrk11): I
- Oslrk2 expression by RT-PCR, Rt (Oslrk2; Rt): I
- Oslrk2 expression by RT-PCR, Sh (Oslrk2; Sh): R
- Oslrk5 expression by RT-PCR, Rt (Oslrk5): I
- Oslrk5 expression by RT-PCR, Sh (Oslrk5): I
